IC50 data for three molecules are collected here from BindingDB's records for patent US20240043427 (Gilead Sciences, 2024).

Structures are written as SMILES.

5'-nucleotidase, sequence (P21589 whole entry): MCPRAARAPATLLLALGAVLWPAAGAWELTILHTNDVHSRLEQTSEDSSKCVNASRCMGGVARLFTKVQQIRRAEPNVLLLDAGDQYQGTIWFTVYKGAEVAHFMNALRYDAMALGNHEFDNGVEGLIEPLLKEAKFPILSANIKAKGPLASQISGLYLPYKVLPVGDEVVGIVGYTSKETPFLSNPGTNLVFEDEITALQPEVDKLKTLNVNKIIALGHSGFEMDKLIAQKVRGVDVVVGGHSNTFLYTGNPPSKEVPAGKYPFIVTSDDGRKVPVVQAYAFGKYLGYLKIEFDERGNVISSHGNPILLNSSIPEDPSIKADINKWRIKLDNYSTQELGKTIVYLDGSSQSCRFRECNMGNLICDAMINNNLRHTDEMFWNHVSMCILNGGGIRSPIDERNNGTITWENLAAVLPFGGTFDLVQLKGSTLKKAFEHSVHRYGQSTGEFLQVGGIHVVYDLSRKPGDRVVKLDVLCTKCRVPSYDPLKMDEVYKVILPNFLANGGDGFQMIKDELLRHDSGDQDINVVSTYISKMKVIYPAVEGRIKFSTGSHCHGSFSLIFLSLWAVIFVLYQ

This test concerns the target 5'-nucleotidase (Homo sapiens, UniProt P21589). Briefly: CD73 Biochemical IC50 Assay. The procedure: Compound serial dilutions were pre-spotted into Thermo Nunc assay plate. 50 uL CD73 enzyme buffer (CD73 purchased from R&D system=0.6 nM, 25 mM Tris, pH 7.4, 5 mM MgCl2, 1 mM NaH2PO4) was added into the assay plate and incubate for 15 mins. […] The samples were analyzed using Rapid fire.
On to `O=c1[nH]cc(-c2cc(N3CC4CC(F)(C4)C3)c3nccn3n2)c(=O)[nH]1` [US20240043427, Example 579], for which half-maximal inhibition (IC50) required 19.1 nM.
Under `O=c1[nH]cc(-c2cc([C@H]3C[C@@H]3c3ccc4cnn(CC(F)(F)F)c4c3F)c3ncc(F)n3n2)c(=O)[nH]1` [US20240043427, Example 630] stands 0.32 nM; under `CC(C)(C)COc1cc(-c2c[nH]c(=O)[nH]c2=O)nn2ccnc12` [US20240043427, Example 679], 67.9 nM.
